Source: ChEMBL document CHEMBL2069252, “Pyrazole diaminopyrimidines as dual inhibitors of KDR and Aurora B kinases” (Bioorg Med Chem Lett, 2012)
Activity calls are given as the source filed them. The calls are words filed in the database; no cut-off is given here.

Columns and labels:
DOHH-2 = settings: Homo sapiens
Description: Antitumor activity against human DOHH2 cells xenografted in mouse tumor model assessed as tumor growth inhibition at 10 mg/kg, ip administered Q7d for 3 weeks

[1] = target: Fibroblast growth factor receptor 2 (Homo sapiens, UniProt P21802); assay: Inhibition of FGFR2 by TR-FRET analysis
[2] = target: T1, Receptor-type tyrosine-protein kinase FLT3 (Homo sapiens, UniProt P36888); assay: Inhibition of Flt3 by TR-FRET analysis
T1 sequence (P36888 whole entry): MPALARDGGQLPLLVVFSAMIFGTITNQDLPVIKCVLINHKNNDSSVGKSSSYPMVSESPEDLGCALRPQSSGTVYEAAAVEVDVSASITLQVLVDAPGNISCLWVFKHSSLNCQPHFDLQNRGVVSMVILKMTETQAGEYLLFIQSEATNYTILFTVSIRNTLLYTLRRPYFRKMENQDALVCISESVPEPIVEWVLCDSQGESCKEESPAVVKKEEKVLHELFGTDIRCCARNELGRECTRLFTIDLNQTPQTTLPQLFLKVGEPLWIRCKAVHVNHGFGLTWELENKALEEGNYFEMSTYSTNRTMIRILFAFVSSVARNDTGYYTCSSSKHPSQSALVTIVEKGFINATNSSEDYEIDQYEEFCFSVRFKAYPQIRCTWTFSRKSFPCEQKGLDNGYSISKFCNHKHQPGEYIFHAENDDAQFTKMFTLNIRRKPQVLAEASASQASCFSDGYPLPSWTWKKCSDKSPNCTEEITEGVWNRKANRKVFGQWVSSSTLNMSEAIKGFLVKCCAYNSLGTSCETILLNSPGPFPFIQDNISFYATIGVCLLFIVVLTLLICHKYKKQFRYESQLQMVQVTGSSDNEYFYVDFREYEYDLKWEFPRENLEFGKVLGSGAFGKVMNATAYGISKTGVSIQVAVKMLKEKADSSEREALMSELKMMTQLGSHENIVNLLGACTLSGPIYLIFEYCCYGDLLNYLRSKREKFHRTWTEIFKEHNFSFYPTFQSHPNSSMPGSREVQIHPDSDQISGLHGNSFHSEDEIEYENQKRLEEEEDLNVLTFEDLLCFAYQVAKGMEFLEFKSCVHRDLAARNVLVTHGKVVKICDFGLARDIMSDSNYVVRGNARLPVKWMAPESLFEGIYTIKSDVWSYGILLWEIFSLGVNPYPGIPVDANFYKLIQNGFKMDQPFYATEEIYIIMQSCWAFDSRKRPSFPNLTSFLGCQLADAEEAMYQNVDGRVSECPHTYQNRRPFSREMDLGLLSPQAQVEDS

NCI-H1299 = assay: Cell cycle arrest in human NCI-H1299 cells assessed as induction of polyploidy after 48 hrs by Hoechst staining-based fluorescence microscopic analysis; format: functional; settings: NCI-H1299, 48 h
Wee1-like protein kinase = Wee1-like protein kinase (Homo sapiens, UniProt P30291); assay: Inhibition of Wee1 by TR-FRET analysis
Mus musculus [3] = assay: Toxicity in mouse xenografted with human DOHH2 cells assessed as weight loss at 10 mg/kg, ip administered Q7d for 3 weeks; settings: in vivo, 504 h
[4] = target: T2, Protein kinase C epsilon type (Homo sapiens, UniProt Q02156); assay: Inhibition of PKCepsilon by TR-FRET analysis
T2 sequence (Q02156 whole entry): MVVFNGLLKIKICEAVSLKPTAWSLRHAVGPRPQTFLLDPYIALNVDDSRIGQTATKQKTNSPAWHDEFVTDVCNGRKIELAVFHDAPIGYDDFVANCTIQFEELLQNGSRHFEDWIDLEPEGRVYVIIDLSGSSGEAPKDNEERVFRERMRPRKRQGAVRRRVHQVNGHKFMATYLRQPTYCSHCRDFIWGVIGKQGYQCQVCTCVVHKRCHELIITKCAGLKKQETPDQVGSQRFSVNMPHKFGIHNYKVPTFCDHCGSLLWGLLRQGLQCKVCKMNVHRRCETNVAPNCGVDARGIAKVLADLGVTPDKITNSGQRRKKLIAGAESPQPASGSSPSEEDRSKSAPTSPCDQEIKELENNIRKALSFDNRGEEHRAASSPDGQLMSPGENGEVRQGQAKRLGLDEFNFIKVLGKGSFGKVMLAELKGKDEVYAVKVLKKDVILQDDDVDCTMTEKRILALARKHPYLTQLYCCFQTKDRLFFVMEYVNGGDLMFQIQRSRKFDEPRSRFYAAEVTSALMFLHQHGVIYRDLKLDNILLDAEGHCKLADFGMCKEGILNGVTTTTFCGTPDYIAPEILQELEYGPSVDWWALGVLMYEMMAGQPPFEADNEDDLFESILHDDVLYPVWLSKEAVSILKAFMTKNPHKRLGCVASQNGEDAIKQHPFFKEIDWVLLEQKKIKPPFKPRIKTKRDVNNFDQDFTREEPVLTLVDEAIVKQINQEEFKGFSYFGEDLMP

Mus musculus [5] = assay: Toxicity in mouse xenografted with human DOHH2 cells assessed as mortality at 10 mg/kg, ip administered Q7d for 3 weeks; settings: in vivo, 504 h
Aurora kinase A = target: T3, Aurora kinase A (Homo sapiens, UniProt O14965); assay: Inhibition of Aurora A by TR-FRET analysis
T3 sequence (O14965 whole entry): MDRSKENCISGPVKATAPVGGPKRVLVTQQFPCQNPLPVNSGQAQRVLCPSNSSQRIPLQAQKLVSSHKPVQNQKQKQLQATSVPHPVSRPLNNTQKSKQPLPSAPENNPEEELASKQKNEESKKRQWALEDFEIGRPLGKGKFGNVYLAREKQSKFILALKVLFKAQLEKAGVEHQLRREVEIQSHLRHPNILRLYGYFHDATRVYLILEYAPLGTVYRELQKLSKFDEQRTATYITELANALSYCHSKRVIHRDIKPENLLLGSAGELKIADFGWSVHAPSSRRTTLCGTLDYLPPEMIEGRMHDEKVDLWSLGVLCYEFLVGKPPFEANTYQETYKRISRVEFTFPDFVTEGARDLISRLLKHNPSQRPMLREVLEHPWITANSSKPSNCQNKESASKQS

[6] = target: Platelet-derived growth factor receptor alpha (Homo sapiens, UniProt P16234); assay: Inhibition of PDGFRalpha by TR-FRET analysis
[7] = target: Glycogen synthase kinase-3 beta (Homo sapiens, UniProt P49841); assay: Inhibition of GSK3beta by TR-FRET analysis
Chain of Glycogen synthase kinase-3 beta (P49841 whole entry): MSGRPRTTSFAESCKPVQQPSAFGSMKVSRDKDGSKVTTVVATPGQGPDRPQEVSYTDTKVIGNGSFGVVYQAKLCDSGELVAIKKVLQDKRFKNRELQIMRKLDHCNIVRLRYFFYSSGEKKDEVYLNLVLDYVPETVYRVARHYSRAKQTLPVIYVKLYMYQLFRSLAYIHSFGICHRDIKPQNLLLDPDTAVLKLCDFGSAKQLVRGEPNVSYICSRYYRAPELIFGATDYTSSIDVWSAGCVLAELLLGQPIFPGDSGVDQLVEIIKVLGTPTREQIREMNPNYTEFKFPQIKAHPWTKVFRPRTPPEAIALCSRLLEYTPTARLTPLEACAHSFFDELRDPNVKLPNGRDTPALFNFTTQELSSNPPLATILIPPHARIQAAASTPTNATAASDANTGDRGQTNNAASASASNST

Chain of Wee1-like protein kinase (P30291 whole entry): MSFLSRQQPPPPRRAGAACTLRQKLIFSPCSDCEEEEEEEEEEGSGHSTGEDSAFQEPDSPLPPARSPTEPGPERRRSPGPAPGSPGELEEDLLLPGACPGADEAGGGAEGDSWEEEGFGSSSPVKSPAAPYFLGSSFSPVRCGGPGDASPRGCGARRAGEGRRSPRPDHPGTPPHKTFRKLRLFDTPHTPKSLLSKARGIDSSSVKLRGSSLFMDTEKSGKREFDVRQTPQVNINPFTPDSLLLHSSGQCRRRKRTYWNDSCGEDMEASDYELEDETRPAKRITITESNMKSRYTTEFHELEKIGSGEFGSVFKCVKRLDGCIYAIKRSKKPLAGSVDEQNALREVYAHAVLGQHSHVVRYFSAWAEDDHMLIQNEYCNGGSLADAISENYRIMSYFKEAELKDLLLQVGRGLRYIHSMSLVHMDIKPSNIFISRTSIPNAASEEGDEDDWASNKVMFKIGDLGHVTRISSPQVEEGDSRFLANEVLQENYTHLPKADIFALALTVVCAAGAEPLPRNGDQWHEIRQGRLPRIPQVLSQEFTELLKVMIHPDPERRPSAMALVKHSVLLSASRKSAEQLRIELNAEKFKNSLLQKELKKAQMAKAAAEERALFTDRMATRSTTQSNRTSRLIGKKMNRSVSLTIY
Chain of Fibroblast growth factor receptor 2 (P21802 whole entry): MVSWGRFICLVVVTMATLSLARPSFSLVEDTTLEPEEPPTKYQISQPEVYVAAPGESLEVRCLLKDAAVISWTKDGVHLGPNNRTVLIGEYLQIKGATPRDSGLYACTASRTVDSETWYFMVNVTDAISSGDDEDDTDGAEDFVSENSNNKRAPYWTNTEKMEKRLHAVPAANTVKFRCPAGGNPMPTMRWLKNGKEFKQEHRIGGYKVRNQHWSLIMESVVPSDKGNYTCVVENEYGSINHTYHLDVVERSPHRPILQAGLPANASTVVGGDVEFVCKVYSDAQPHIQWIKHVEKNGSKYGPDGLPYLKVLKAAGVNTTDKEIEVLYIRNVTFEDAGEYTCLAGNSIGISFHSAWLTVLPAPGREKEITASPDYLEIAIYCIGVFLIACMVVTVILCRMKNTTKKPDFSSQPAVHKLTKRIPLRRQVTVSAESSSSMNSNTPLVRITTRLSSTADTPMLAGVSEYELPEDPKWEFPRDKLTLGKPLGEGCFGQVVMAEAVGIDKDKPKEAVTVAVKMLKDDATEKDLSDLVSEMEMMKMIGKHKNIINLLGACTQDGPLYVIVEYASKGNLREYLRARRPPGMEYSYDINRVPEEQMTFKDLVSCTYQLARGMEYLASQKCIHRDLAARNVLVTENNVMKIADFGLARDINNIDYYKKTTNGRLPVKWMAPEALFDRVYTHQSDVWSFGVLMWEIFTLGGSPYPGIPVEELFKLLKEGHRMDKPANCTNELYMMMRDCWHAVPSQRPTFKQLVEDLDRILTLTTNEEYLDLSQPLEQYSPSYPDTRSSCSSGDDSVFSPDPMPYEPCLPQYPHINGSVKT
Chain of Platelet-derived growth factor receptor alpha (P16234 whole entry): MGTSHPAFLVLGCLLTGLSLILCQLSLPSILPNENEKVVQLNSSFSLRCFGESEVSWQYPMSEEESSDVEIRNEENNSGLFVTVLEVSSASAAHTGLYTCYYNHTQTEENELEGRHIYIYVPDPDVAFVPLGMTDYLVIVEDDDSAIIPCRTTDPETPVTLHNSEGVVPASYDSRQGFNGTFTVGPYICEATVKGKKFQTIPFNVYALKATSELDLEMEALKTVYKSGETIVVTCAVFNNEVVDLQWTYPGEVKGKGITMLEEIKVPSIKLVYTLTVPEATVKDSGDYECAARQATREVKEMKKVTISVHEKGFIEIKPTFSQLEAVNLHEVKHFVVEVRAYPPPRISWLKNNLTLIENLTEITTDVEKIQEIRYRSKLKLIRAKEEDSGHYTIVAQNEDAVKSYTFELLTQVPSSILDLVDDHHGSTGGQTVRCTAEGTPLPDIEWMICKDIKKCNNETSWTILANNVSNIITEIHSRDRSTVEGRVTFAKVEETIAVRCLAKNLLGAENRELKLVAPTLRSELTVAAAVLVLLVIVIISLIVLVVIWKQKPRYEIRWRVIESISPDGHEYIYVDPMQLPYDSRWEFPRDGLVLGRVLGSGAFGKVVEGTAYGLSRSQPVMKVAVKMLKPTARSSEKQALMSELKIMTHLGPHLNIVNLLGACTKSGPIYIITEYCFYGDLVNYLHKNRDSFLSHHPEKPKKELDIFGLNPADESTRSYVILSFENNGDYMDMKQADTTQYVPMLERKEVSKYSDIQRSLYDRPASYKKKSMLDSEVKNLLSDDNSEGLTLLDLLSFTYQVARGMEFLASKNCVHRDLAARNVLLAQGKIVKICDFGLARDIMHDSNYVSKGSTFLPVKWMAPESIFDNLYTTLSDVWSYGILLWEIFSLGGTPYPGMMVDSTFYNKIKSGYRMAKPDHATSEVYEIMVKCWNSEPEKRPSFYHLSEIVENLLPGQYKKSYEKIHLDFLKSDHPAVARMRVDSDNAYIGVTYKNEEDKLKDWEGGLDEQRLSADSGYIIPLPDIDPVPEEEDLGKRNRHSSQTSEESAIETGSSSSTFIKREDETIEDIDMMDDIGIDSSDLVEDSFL

Cn1cc(Nc2ncc(Br)c(N[C@H]3[C@@H](C(N)=O)[C@@H]4C=C[C@H]3C4)n2)cn1
TGI (DOHH-2): Active
IC50 [1]: 2 nM
IC50 [2]: 1 nM
EC15 (NCI-H1299): < 3 nM
IC50 (Wee1-like protein kinase): 2800 nM
Activity (Mus musculus [3]): Toxic
IC50 [4]: 82 nM
Activity (Mus musculus [5]): Toxic
IC50 (Aurora kinase A): 3 nM
IC50 [6]: 1 nM
IC50 [7]: 34 nM
